From patent US4470977A, “Antiemetic and antipsychotic agents” (Adria Laboratories, Inc., priority 1982, dated 1984)

Key:
[1] = test system: mammary gland; assay: Effect of Sulpiride and Sulpiride Analogs on Mammary Gland Development in Female Sprague Dawley Rats; assay type: in vivo; conditions: for Number of Animals with Mammary Hypertrophy: n = 6 female Sprague Dawley rats, 0.02% drug in chow, 14 days
Source text: The animals were individually caged during the 14-day study, with rat chow and tap water permitted ad libitum. The rat chow fed to the control group contained no drug, while that fed to the other groups contained 0.02% drug. Food cups were weighed and refilled on day 7 during the study. On day 14 of the study, the animals were sacrificed by asphyxiation in a CO2 atmosphere and then were weighed. The abdominal skin was cut along the midline from the pelvis to the sternum and separated from underlying tissues by blunt dissection. Each animal was then examined grossly for mammary gland enlargement.

[2] = test system: dopaminergic receptors; assay: Antagonism to Apomorphine Induced Climbing Behavior; assay type: in vivo, mouse; conditions: for Antagonism (20 min. After): 20 minutes after 1 mg/kg s.c. apomorphine, doses 6.25 to 100 mg/kg; for Antagonism (20 min. After) / ED50: mouse; for ED50: antagonism to apomorphine (1 mg/kg s.c.) induced climbing behavior, p.o.; for apomorphine induced climbing behavior (in words): indicator of antipsychotic activity
Source text: The effect of each of the compounds in Table 1 on apomorphine induced climbing behavior related to stimulation of dopaminergic receptors was studied under the experimental conditions described by Costetin et al, 1975, Rapid and Dissociated Changes in Sensitivities of Different Dopamine Receptors in Mouse Brain, Nature, 257, 405.

[3] = test system: medullary chemoreceptor trigger zone (CTZ); assay: Antiemetic Screen: Antagonism to Apomorphine Induced Emesis In the Dog; assay type: in vivo, beagle dogs; set-up: key to Antagonism to Apomorphine Induced Emesis: If both animals receiving a particular treatment are protected (i.e., no emetic response within one hour after apomorphine), the test compound is defined as active (+); conditions: for Antagonism to Apomorphine Induced Emesis: 10 mg/kg sc, beagle dogs, 0.1 mg/kg sc apomorphine HCl one hour later
Experimental: Each compound is administered subcutaneously (sc) to two beagle dogs at 10.0 mg/kg. One hour following administration of the test compound, each animal receives 0.1 mg/kg, sc, of apomorphine HCl. Apomorphine consistently evokes an immediate emetic response through direct dopaminergic interaction at the medullary chemoreceptor trigger zone (CTZ). Antiemetic compounds which act at the CTZ and/or the midbrain vomiting center will block this effect of apomorphine. If both animals receiving a particular treatment are protected (i.e., no emetic response within one hour after apomorphine), the test compound is defined as active (+). In instances where protection is observed in only 1 of the 2 animals, the experiment is repeated in two additional animals and the results of the two tests are combined. Compounds which protect 3 out of 4 animals are then defined as active. The results are shown in Table 4 below and indicate that each of the invention compounds is active against emesis.

[4] = test system: dopamine receptors; conditions: cited from earlier work

Structure (SMILES): CCN1CCCC1CNC(=O)c1cccc(Cl)c1OC (stereo not drawn) [Compound 1, 3-chloro-N-(1-ethyl-2-pyrrolidinylmethyl)-2-methoxybenzamide]
- mammary hypertrophy (in words) [1]: without mammary hypertrophy
- Number of Animals with Mammary Hypertrophy [1]: 0 animals
- Antagonism (20 min. After) [2]: Yes
- ED50 [2]: 26.8 (20.7-38.5) mg/kg p.o.
- apomorphine induced climbing behavior (in words) [2]: suppress apomorphine induced climbing behavior
- antiemetic effect (in words) [3]: possess an antiemetic effect
- Antagonism to Apomorphine Induced Emesis [3]: +

Structure (SMILES): CCN1CCCC1CNC(=O)c1ccc(Cl)cc1OC (stereo not drawn) [Compound 2, 4-chloro-N-(1-ethyl-2-pyrrolidinylmethyl)-2-methoxybenzamide]
- mammary hypertrophy (in words) [1]: without mammary hypertrophy
- Number of Animals with Mammary Hypertrophy [1]: 0 animals
- Antagonism (20 min. After) [2]: Yes
- apomorphine induced climbing behavior (in words) [2]: suppress apomorphine induced climbing behavior
- antiemetic effect (in words) [3]: possess an antiemetic effect
- Antagonism to Apomorphine Induced Emesis [3]: +

Structure (SMILES): CCN1CCCC1CNC(=O)c1cc(Cl)ccc1OC (stereo not drawn) [Compound 3, 5-chloro-N-(1-ethyl-2-pyrrolidinylmethyl)-2-methoxybenzamide]
- mammary hypertrophy (in words) [1]: without mammary hypertrophy
- Number of Animals with Mammary Hypertrophy [1]: 0 animals
- Antagonism (20 min. After) [2]: Yes
- apomorphine induced climbing behavior (in words) [2]: suppress apomorphine induced climbing behavior
- antiemetic effect (in words) [3]: possess an antiemetic effect
- Antagonism to Apomorphine Induced Emesis [3]: +

Structure (SMILES): CCN1CCCC1CNC(=O)c1ccccc1OC (stereo not drawn) [Compound 4, N-(1-ethyl-2-pyrrolidinylmethy)-2-methoxybenzamide]
- mammary hypertrophy (in words) [1]: without mammary hypertrophy
- Number of Animals with Mammary Hypertrophy [1]: 0 animals
- Antagonism (20 min. After) [2]: Yes
- apomorphine induced climbing behavior (in words) [2]: suppress apomorphine induced climbing behavior
- antiemetic effect (in words) [3]: possess an antiemetic effect
- Antagonism to Apomorphine Induced Emesis [3]: +

Structure (SMILES): CCN1CCCC1CNC(=O)c1ccc(C)cc1OC (stereo not drawn) [Compound 5, N-(1-ethyl-2-pyrrolidinylmethyl)-2-methoxy-4-methylbenzamide]
- Number of Animals with Mammary Hypertrophy [1]: 0 animals
- Antagonism (20 min. After) [2]: Yes
- Antagonism to Apomorphine Induced Emesis [3]: +

Structure (SMILES): CCN1CCCC1CNC(=O)c1cc(C)ccc1OC (stereo not drawn) [Compound 6, N-(1-ethyl-2-pyrrolidinylmethyl)-2-methoxy-5-methylbenzamide]
- Number of Animals with Mammary Hypertrophy [1]: 0 animals
- Antagonism (20 min. After) [2]: Yes
- Antagonism to Apomorphine Induced Emesis [3]: +

Structure (SMILES): CCN1CCCC1CNC(=O)c1cccc([N+](=O)[O-])c1OC (stereo not drawn) [Compound 7, N-(1-ethyl-2-pyrrolidinylmethyl)-2-methoxy-3-nitrobenzamide]
- Number of Animals with Mammary Hypertrophy [1]: 0 animals
- Antagonism (20 min. After) [2]: Yes
- Antagonism to Apomorphine Induced Emesis [3]: +

Structure (SMILES): CCN1CCCC1CNC(=O)c1cccc(C)c1[N+](=O)[O-] (stereo not drawn) [Compound 8, N-(1-ethyl-2-pyrrolidinylmethyl)-3-methyl-2-nitrobenzamide]
- Number of Animals with Mammary Hypertrophy [1]: 0 animals
- Antagonism (20 min. After) [2]: No
- Antagonism to Apomorphine Induced Emesis [3]: +

Structure (SMILES): CCN1CCCC1CNC(=O)c1ccccc1N (stereo not drawn) [Compound 9, 2-amino-N-(1-ethyl-2-pyrrolidinylmethyl)-benzamide]
- mammary hypertrophy (in words) [1]: without mammary hypertrophy
- Number of Animals with Mammary Hypertrophy [1]: 0 animals
- Antagonism (20 min. After) [2]: Yes
- apomorphine induced climbing behavior (in words) [2]: suppress apomorphine induced climbing behavior
- antiemetic effect (in words) [3]: possess an antiemetic effect
- Antagonism to Apomorphine Induced Emesis [3]: +

Structure (SMILES): CCN1CCCC1CNC(=O)c1cccc(C)c1N (stereo not drawn) [Compound 10, 2-amino-N-(1-ethyl-2-pyrrolidinylmethyl)-3-methylbenzamide]
- Number of Animals with Mammary Hypertrophy [1]: 0 animals
- Antagonism (20 min. After) [2]: No
- Antagonism to Apomorphine Induced Emesis [3]: +

Structure (SMILES): CCN1CCCC1CNC(=O)c1cccc(N)c1C (stereo not drawn) [Compound 11, 3-amino-N-(1-ethyl-2-pyrrolidinylmethyl)-2-methylbenzamide]
- Number of Animals with Mammary Hypertrophy [1]: 0 animals
- Antagonism (20 min. After) [2]: No
- Antagonism to Apomorphine Induced Emesis [3]: +

Structure (SMILES): CCN1CCCC1CNC(=O)c1cc(Cl)ccc1Cl (stereo not drawn) [Compound 12, 2,5-dichloro-N-(1-ethyl-2-pyrrolidinylmethyl)-benzamide]
- mammary hypertrophy (in words) [1]: without mammary hypertrophy
- Number of Animals with Mammary Hypertrophy [1]: 0 animals
- Antagonism (20 min. After) [2]: Yes
- apomorphine induced climbing behavior (in words) [2]: suppress apomorphine induced climbing behavior
- antiemetic effect (in words) [3]: possess an antiemetic effect
- Antagonism to Apomorphine Induced Emesis [3]: +

Structure (SMILES): CCN1CCCC1CNC(=O)c1cccc(Cl)c1C (stereo not drawn) [Compound 13, 3-chloro-N-(1-ethyl-2-pyrrolidinylmethyl)-2-methylbenzamide]
- Number of Animals with Mammary Hypertrophy [1]: 0 animals
- Antagonism (20 min. After) [2]: No
- Antagonism to Apomorphine Induced Emesis [3]: +

Structure (SMILES): CCN1CCCC1CNC(=O)c1cc(S(N)(=O)=O)ccc1OC (stereo not drawn) [Sulpiride, 2-methoxy-N-(1-ethyl-2-pyrrolidinylmethyl)-5-sulfamoyl benzamide, reference compound]
- mammary hypertrophy (in words) [1]: consistently produce mammary hypertrophy
- Number of Animals with Mammary Hypertrophy [1]: 6 animals
- Antagonism (20 min. After) [2]: Yes
- ED50 [2]: 24.3 (19.3-32.4) mg/kg p.o.
- undesirable side effect [4]: mammary hypertrophy
